What all share (settings): synthetic library passage 3, intravenous, relative to wild-type AAV9
Test [1] has as its system brain, spinal cord, and DRG of the NHPs. As to the kind of experiment: NGS fold enrichment of synthetic library (passage 3) in NHPs, first cross-species screen. In kind it is in vivo, cynomolgus macaques (Macaca fascicularis). The method in brief: (§1)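 Synthetic capsid library (passage 3) was given intravenously […] to NHPs aged 2-4 years and to BALB/c and C57Bl/6 mice (n=3 each, 6-8 weeks). After about 28 days in vivo, tissue RNA was RT-PCR amplified and NGS-sequenced; values are fold enrichment per variant relative to wild-type AAV9.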

Test [2] relates to brain. Briefly: NGS fold enrichment of synthetic library (passage 3) in BALB/c mice, first cross-species screen. In kind it is in vivo. The procedure, abridged: as §1
The subject of test [3] is brain. Briefly: NGS fold enrichment of synthetic library (passage 3) in C57Bl/6 mice, first cross-species screen. It is filed as in vivo. The procedure, abridged: as §1
[4] abbreviates: RNA from spinal cord of NHPs, NGS.
[5] abbreviates: RNA from brain of BALB/c mice, NGS.
The mark [6] stands for this setting: RNA from brain of C57Bl/6 mice, NGS.

Consider GSGQNHRSADMQQT, for which the “Fold enrichment over AAV9 in the brain of NHPs” value in test [1] (RNA NGS, brain of NHPs) is reported as 1.084 fold. Moreover, the “Fold enrichment over AAV9 in the spinal cord of NHPs” value in test [1] (RNA NGS, spinal cord of NHPs) is 12.001 fold. Besides, in the test on brain [2] (RNA NGS, brain of BALB/c mice), the “Fold enrichment over AAV9 in the brain of Mice (BALB/c)” value (“Fold enrichment over AAV9 … (BALB/c)” for short) came to 0.212 fold. Further, the “Fold enrichment over AAV9 in the brain of Mice (C57Bl/6)” value (shortened to “Fold enrichment over AAV9 … (C57Bl/6)”) with brain [3] (RNA NGS, brain of C57Bl/6 mice) came out at 0.417 fold.
For GSGQYRSSSDNQQT, the “Fold enrichment over AAV9 in the brain of NHPs” value in test [1] (RNA from brain of NHPs, NGS) was determined as 1.369 fold. For the same sequence, in test [1] (setting [4]), the “Fold enrichment over AAV9 in the spinal cord of NHPs” value is 6.209 fold. Besides, in the test on brain [2] (setting [5]), the “Fold enrichment over AAV9 … (BALB/c)” value is 0.409 fold. Further, the “Fold enrichment over AAV9 … (C57Bl/6)” value in the test on brain [3] (setting [6]) is reported as 0.681 fold.
With GSGQNQQTHPSPCT, the “Fold enrichment over AAV9 in the brain of NHPs” value in test [1] (RNA NGS, brain of NHPs) was 1.510 fold. In addition, the “Fold enrichment over AAV9 in the spinal cord of NHPs” value in test [1] (RNA NGS, spinal cord of NHPs) came out at 1.003 fold. In addition, the “Fold enrichment over AAV9 … (BALB/c)” value in the test with brain [2] (RNA NGS, brain of BALB/c mice) is on record as 0.546 fold. For the same sequence, the “Fold enrichment over AAV9 … (C57Bl/6)” value with brain [3] (RNA NGS, brain of C57Bl/6 mice) was found to be 1.120 fold.
As for GSGHPYKAAQNQQT, in test [1] (RNA from brain of NHPs, NGS), the “Fold enrichment over AAV9 in the brain of NHPs” value is recorded as 1.246 fold. In test [1] (setting [4]), the “Fold enrichment over AAV9 in the spinal cord of NHPs” value worked out at 0.000 fold. In addition, in the test on brain [2] (setting [5]), the “Fold enrichment over AAV9 … (BALB/c)” value was determined as 0.507 fold. In the test on brain [3] (setting [6]), the “Fold enrichment over AAV9 … (C57Bl/6)” value amounted to 0.872 fold.
Taken in the same sequence, the figures for GSGSPQASRQNQQT were 1.189 fold, 6.782 fold, 0.542 fold and 0.923 fold.
In the case of GSGQNQQTGSSSRV, the “Fold enrichment over AAV9 in the brain of NHPs” value in test [1] (RNA from brain of NHPs, NGS) is 1.176 fold. The “Fold enrichment over AAV9 in the spinal cord of NHPs” value in test [1] (setting [4]) is 0.580 fold. Further, in the test on brain [2] (setting [5]), the “Fold enrichment over AAV9 … (BALB/c)” value was 1.128 fold. Further, in the test with brain [3] (setting [6]), the “Fold enrichment over AAV9 … (C57Bl/6)” value worked out at 0.995 fold.
As for GHLTMHNSGQNHQT, in test [1] (RNA NGS, brain of NHPs), the “Fold enrichment over AAV9 in the brain of NHPs” value stood at 1.938 fold. In addition, the “Fold enrichment over AAV9 in the spinal cord of NHPs” value in test [1] (RNA NGS, spinal cord of NHPs) is 1.798 fold. Besides, the “Fold enrichment over AAV9 … (BALB/c)” value in the test on brain [2] (RNA NGS, brain of BALB/c mice) is listed as 0.586 fold. Further, the “Fold enrichment over AAV9 … (C57Bl/6)” value in the test on brain [3] (RNA NGS, brain of C57Bl/6 mice) came to 1.030 fold.
As to GSGSLRDFDQNQQT, in test [1] (RNA NGS, brain of NHPs), the “Fold enrichment over AAV9 in the brain of NHPs” value is 2.120 fold. For the same sequence, the “Fold enrichment over AAV9 in the spinal cord of NHPs” value in test [1] (RNA NGS, spinal cord of NHPs) was 6.846 fold. Further, the “Fold enrichment over AAV9 … (BALB/c)” value with brain [2] (RNA NGS, brain of BALB/c mice) is 0.272 fold. In addition, the “Fold enrichment over AAV9 … (C57Bl/6)” value in the test with brain [3] (RNA NGS, brain of C57Bl/6 mice) came out at 0.586 fold.
For GSGQNQQASLAMRT the same measures were 1.910 fold, 3.577 fold, 1.638 fold and 2.066 fold.
As to GSGQNQQSMADHTT, the “Fold enrichment over AAV9 in the brain of NHPs” value in test [1] (RNA NGS, brain of NHPs) was 1.494 fold. Further, the “Fold enrichment over AAV9 in the spinal cord of NHPs” value in test [1] (RNA NGS, spinal cord of NHPs) is given as 1.728 fold. In addition, in the test on brain [2] (RNA NGS, brain of BALB/c mice), the “Fold enrichment over AAV9 … (BALB/c)” value came to 0.215 fold. The “Fold enrichment over AAV9 … (C57Bl/6)” value in the test on brain [3] (RNA NGS, brain of C57Bl/6 mice) was found to be 0.428 fold.
For GSGQLSHQSVNQQT the same measures were 1.898 fold, 4.032 fold, 0.695 fold and 0.720 fold.
Take GSGLALERSQNQQT: the “Fold enrichment over AAV9 in the brain of NHPs” value in test [1] (RNA from brain of NHPs, NGS) worked out at 1.311 fold. For the same sequence, the “Fold enrichment over AAV9 in the spinal cord of NHPs” value in test [1] (setting [4]) worked out at 0.486 fold. Further, the “Fold enrichment over AAV9 … (BALB/c)” value in the test with brain [2] (setting [5]) is 0.096 fold. Moreover, the “Fold enrichment over AAV9 … (C57Bl/6)” value with brain [3] (setting [6]) amounted to 0.618 fold.
As for GSGQSYTMTQNQQT, the “Fold enrichment over AAV9 in the brain of NHPs” value in test [1] (RNA NGS, brain of NHPs) was 2.136 fold. The “Fold enrichment over AAV9 in the spinal cord of NHPs” value in test [1] (RNA NGS, spinal cord of NHPs) is given as 6.755 fold. Moreover, the “Fold enrichment over AAV9 … (BALB/c)” value with brain [2] (RNA NGS, brain of BALB/c mice) was 0.231 fold. In addition, in the test on brain [3] (RNA NGS, brain of C57Bl/6 mice), the “Fold enrichment over AAV9 … (C57Bl/6)” value is given as 0.297 fold.
As to GSGQNQQVAIRTST, the “Fold enrichment over AAV9 in the brain of NHPs” value in test [1] (RNA NGS, brain of NHPs) came out at 1.035 fold. The “Fold enrichment over AAV9 in the spinal cord of NHPs” value in test [1] (RNA NGS, spinal cord of NHPs) is listed as 2.447 fold. Further, the “Fold enrichment over AAV9 … (BALB/c)” value in the test with brain [2] (RNA NGS, brain of BALB/c mice) is 0.370 fold. Moreover, in the test on brain [3] (RNA NGS, brain of C57Bl/6 mice), the “Fold enrichment over AAV9 … (C57Bl/6)” value is on record as 0.963 fold.
In the case of GSLVSQGAGQNQQT, the “Fold enrichment over AAV9 in the brain of NHPs” value in test [1] (RNA NGS, brain of NHPs) stood at 2.188 fold. Also, in test [1] (RNA NGS, spinal cord of NHPs), the “Fold enrichment over AAV9 in the spinal cord of NHPs” value was determined as 4.414 fold. Further, in the test with brain [2] (RNA NGS, brain of BALB/c mice), the “Fold enrichment over AAV9 … (BALB/c)” value is recorded as 1.246 fold. Also, the “Fold enrichment over AAV9 … (C57Bl/6)” value in the test on brain [3] (RNA NGS, brain of C57Bl/6 mice) was 1.436 fold.
As to GSGQNRGISISQQT, the “Fold enrichment over AAV9 in the brain of NHPs” value in test [1] (RNA NGS, brain of NHPs) is given as 1.057 fold. Moreover, the “Fold enrichment over AAV9 in the spinal cord of NHPs” value in test [1] (RNA NGS, spinal cord of NHPs) came to 2.166 fold. The “Fold enrichment over AAV9 … (BALB/c)” value in the test with brain [2] (RNA NGS, brain of BALB/c mice) is 0.566 fold. Moreover, the “Fold enrichment over AAV9 … (C57Bl/6)” value with brain [3] (RNA NGS, brain of C57Bl/6 mice) is recorded as 0.686 fold.

Source of the values: patent US20260250318A1, “COMPOSITIONS AND METHODS FOR CROSSING THE BLOOD BRAIN BARRIER” (VOYAGER THERAPEUTICS, INC., priority 2022, published 2026).
